Article PMC3791872 (Bioscience Reports, 2013)

Tests used:
[1] = target: T1, Mcm467 (Saccharomyces cerevisiae, UniProt P30665+P38132+P53091); assay: Mcm467 helicase (DNA unwinding) assay; type: biochemical; settings: DNA unwinding, 100 nM hexamer, inhibitor preincubation; […]; read-out: IC50 Mcm467
T1 construct: made in house; host or cells: baculovirus-infected insect cells

[2] = tested on: S. cerevisiae ∆erg6 (UPY675); assay: Yeast growth inhibition, 96-well assay, ∆erg6 strain; type: cell-based, Saccharomyces cerevisiae
[3] = tested on: S. cerevisiae ∆erg6 mcm4chaos3 (UPY1056); assay: Yeast growth inhibition, 96-well assay, ∆erg6 mcm4chaos3 strain; type: cell-based; settings: Saccharomyces cerevisiae; growth over 24 h
[4] = tested on: RPE-hTERT cells; assay: Human cell viability, MTS method; type: cell-based; settings: Homo sapiens, 48 h, value (95% CI)
Procedure: Ciproﬂoxacin is an inhibitor of the Mcm2-7 […]
The viability of human cells was assayed using the MTS method
[1]. Brieﬂy, 1 ×10^5 cells of the human non-tumour cell line RPE-hTERT were plated into each well of a 96-well plate and grown in DMEM: F12 containing 10 % (v/v) FBS in 5 % (v/v) CO2 at 37 ◦ C. The next day, the indicated compounds were titrated into media such that the ﬁnal concentration contained 1 % (v/v)
DMSO. As a negative control, media were also prepared that contained 1 % DMSO but lacked compound. After 48 h, the media was removed and replaced with DMEM lacking phenol red but containing Cell Titer 96 Aqueous One Solution Cell Proliferation
Assay (Promega). After 1 h, the A490 nm was measured using a BioRad iMark Microplate Reader (Hercules). Final data reﬂect the average and standard deviation (S.D.) of three replicates at each compound concentration. […]

[5] = tested on: T2, Mcm2-7; assay: Steady-state ATP hydrolysis by Mcm2-7; type: biochemical, Saccharomyces cerevisiae; settings: 1 mM compound, 100 nM hexamer
T2 construct: made in house; host or cells: baculovirus-infected insect cells

[6] = target: T1, Mcm467; assay: Steady-state ATP hydrolysis by Mcm467; type: biochemical; settings: 1 mM compound, 100 nM hexamer
[7] = target: T3, SV40 large TAg (Simian virus 40, UniProt P03070); assay: ssDNA double filter-binding assay, TAg; parameters: species or system SV40 (simian virus 40); settings: 1 mM compound, 150 nM helicase
T3 construct: made in house
T3 sequence (P03070 whole entry): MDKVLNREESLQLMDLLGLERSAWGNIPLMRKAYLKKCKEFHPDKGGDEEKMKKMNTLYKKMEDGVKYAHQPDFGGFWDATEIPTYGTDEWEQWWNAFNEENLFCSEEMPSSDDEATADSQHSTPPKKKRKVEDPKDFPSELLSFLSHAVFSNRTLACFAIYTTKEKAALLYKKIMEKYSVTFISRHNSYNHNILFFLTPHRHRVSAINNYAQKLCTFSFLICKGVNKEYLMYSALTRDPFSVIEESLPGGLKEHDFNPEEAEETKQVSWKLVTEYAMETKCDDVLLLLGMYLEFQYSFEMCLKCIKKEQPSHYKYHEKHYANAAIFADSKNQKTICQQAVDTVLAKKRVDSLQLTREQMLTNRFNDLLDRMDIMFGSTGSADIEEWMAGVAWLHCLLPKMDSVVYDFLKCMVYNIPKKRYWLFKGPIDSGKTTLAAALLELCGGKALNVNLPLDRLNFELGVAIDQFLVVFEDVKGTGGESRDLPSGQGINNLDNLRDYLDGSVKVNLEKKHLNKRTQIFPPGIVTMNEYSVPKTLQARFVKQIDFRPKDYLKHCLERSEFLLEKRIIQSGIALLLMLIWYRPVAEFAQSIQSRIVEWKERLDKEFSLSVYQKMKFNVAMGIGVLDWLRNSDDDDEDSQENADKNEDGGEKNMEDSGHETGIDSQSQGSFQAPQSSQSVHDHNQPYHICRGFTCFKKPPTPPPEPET

[8] = target: DnaB (Escherichia coli, UniProt P0ACB0); assay: DnaB helicase assay; type: biochemical; settings: 1 mM, Figure S3
DnaB, sequence (P0ACB0 whole entry, the tested form may be a part): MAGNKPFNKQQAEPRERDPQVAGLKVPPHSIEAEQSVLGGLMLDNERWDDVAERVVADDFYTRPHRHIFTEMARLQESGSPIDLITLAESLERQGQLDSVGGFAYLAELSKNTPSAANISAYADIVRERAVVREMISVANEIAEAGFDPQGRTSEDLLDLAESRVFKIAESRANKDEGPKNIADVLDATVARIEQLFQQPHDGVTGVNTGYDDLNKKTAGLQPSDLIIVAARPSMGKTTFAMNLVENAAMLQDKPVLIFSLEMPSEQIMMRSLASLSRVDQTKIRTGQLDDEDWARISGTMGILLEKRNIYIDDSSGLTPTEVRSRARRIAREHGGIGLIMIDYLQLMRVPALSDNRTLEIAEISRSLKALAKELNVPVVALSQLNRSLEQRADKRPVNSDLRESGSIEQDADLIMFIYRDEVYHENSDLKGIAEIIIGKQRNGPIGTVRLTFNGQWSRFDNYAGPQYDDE
Procedure: (§1) Helicase assays were performed essentially as described. Synthetic replication forks were prepared by annealing oligos 233 and 235 [IDT (Coralville), oligo 233 5′(T)40[…]; oligo 235 5′ […](T)40] and then filling in the recessed 3′-end with [α32P]dATP and unlabelled dNTPs using Klenow Fragment. Briefly, reactions ([…]) were performed in 1× helicase assay buffer [20 mM Tris/HCl (pH 7.5), 10 mM MgOAc, 20% (v/v) glycerol, 100 μM EDTA and 5 mM DTT (dithiothreitol)] and contained a final concentration of 1 nM fork substrate, 5 mM ATP, 40 mM creatine phosphate, […] creatine kinase, 33 μg/ml BSA. Reactions containing Mcm2-7 and Mcm467 were supplemented with 200 mM potassium glutamate. Reactions containing SsoMcm were incubated at 65°C, those containing T4 gp41 were incubated for 30 min at 37°C, and all other reactions were incubated at 37°C for 1 h. The products were separated by 10% (w/v) native PAGE, the resulting gels dried and the radioactivity quantified using a Fuji FLA-5100 phosphoimager. Irrespective of the protein used, all helicase assays contained equal molar helicase concentrations (100 nM, assuming in all cases that the active helicase form is hexameric). Steady-state ATP hydrolysis was assayed as published. In short, reactions were set up essentially as in the helicase assay, with minor exceptions. A non-radiolabelled DNA fork was used, helicase concentration was 100 nM (hexamer) the total ATP concentration was 500 μM and included ~0.5 μCi of [α32P]ATP, and the ATP regeneration system was omitted. Reactions were incubated for 1 h at 37°C and stopped by the addition of SDS. ATP was separated from ADP by PEI (polyethyleneimine) thin layer chromatography, and the ratio of ATP:ADP was quantified using a Fuji FLA-5100 phosphoimager. Based on our prior work, conditions were established to ensure that the results shown are within the linear range of the assay. Protein–ssDNA binding was determined with a double filter-binding assay using an ssDNA probe (oligo 826, 5′[…]) that was 5′-radiolabelled using T4 polynucleotide kinase and [γ32P]ATP [16]. For the double filter-binding assay, the helicase concentration was 150 nM (hexamer) and the ssDNA concentration was 4 nM. For all biochemical assays, helicases were preincubated with inhibitors for 20 min at 37°C unless otherwise indicated. […]
(§2) against different helicases
(§3) Representative helicase activity assays in the presence of the indicated inhibitor were tested, quantiﬁed and standardized as described in the legend to F igures 2 (A) and (B). All helicases were assayed at 100 nM
(§4) ﬁnal concentration (hexamer) with inhibitor preincubation prior to ATP […]
(§5) F igure S3 Ciproﬂoxacin poor ly inhibits hexameric helicases un- […]
(§6) All inhibitors were used at 1 mM ﬁnal concentration. […]

[9] = target: T4, T4 gp41 (Enterobacteria phage T4, UniProt P04530); assay: T4 gp41 helicase assay; type: biochemical; settings: 1 mM, Figure S3
T4 sequence (P04530 1-475): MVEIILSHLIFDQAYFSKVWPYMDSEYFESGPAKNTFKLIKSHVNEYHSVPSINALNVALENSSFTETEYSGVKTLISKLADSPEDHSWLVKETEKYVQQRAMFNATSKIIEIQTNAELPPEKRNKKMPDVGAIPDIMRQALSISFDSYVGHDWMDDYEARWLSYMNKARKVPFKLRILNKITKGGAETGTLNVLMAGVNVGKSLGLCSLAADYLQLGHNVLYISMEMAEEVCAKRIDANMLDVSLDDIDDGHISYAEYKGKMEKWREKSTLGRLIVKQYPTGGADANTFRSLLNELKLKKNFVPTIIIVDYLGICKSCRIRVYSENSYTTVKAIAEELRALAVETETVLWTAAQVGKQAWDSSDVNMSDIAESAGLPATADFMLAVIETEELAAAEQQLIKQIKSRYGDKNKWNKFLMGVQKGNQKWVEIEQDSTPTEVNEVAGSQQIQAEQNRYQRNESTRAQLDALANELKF
Procedure: as §1, §2, §3, §4, §5, §6

T1 sequence (P30665 whole entry): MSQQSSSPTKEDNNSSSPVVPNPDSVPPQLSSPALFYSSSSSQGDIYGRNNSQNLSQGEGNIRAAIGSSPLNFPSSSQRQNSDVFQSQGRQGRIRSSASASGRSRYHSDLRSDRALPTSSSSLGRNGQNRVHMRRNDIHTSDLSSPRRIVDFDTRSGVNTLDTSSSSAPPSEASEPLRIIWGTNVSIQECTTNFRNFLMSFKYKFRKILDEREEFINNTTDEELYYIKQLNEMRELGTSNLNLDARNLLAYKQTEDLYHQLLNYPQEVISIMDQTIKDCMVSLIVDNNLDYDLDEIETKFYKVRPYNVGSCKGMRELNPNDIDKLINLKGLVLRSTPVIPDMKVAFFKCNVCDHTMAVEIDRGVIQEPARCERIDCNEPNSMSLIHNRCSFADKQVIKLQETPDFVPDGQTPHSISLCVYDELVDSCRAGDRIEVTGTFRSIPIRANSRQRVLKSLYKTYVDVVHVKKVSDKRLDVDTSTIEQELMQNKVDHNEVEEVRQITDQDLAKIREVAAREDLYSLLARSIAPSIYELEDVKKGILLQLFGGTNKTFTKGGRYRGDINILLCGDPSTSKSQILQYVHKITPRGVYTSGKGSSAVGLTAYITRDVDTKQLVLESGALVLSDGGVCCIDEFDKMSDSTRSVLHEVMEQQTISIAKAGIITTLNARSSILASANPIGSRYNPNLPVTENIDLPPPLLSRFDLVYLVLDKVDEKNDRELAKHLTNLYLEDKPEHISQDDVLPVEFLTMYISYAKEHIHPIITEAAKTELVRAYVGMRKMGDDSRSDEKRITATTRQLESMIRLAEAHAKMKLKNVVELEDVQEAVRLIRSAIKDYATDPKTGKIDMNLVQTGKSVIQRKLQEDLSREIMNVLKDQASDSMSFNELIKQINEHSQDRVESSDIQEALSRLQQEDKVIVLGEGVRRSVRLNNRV
T1 sequence (P53091 whole entry): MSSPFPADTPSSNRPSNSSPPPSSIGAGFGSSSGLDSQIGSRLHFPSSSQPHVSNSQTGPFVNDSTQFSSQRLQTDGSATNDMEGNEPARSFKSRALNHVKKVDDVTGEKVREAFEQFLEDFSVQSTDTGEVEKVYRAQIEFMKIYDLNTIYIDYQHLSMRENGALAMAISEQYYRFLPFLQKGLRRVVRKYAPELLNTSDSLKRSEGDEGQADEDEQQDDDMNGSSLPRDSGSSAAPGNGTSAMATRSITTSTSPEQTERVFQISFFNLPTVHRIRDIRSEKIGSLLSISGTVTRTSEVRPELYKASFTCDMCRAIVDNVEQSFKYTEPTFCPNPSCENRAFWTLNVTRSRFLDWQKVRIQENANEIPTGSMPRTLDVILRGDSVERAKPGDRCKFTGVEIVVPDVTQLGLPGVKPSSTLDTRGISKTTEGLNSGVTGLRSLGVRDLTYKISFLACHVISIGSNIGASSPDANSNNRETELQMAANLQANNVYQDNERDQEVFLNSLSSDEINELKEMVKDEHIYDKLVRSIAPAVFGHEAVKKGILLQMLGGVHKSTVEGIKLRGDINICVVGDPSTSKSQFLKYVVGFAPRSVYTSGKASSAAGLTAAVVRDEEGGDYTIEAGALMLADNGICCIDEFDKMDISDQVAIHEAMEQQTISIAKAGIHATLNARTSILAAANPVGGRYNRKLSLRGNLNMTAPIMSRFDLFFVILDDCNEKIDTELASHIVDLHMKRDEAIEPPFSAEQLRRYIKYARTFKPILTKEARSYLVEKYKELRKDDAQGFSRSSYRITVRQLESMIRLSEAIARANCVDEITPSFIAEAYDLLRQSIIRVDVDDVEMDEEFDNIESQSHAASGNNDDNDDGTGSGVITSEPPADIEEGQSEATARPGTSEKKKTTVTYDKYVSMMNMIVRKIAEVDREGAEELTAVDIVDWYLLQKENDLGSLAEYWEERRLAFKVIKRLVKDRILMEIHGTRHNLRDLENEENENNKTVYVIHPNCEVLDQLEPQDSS
T1 sequence (P38132 whole entry): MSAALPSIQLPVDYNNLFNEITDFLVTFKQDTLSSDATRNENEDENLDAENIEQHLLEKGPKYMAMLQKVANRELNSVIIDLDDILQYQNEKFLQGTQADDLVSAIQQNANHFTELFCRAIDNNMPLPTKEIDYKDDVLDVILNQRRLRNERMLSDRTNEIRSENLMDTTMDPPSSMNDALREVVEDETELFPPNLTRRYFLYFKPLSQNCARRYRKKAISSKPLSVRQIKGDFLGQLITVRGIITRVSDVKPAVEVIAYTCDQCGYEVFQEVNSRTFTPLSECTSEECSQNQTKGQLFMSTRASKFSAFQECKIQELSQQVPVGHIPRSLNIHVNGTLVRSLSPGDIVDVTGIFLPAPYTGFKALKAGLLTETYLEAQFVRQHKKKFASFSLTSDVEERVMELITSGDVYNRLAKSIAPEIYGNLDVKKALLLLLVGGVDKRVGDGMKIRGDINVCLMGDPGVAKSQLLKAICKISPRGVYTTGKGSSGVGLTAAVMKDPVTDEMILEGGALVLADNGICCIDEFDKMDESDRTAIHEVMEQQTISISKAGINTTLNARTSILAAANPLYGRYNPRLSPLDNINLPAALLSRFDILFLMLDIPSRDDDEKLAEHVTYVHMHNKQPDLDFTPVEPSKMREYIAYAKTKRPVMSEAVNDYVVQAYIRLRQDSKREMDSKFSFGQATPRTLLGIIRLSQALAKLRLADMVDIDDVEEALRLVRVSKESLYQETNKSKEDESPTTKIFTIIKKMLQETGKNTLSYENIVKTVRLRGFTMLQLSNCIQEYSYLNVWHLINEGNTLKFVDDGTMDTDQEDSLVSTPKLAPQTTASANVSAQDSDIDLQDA

For `O=C(O)c1cn(C2CC2)c2cc(N3CCNCC3)c(F)cc2c1=O` [Ciprofloxacin, ciprofloxacin, reference compound], the IC50 [1] was 1890 µM, the “growth response of ∆erg6 yeast” value ([2]; Figure 4A) was “demonstrable growth sensitivity” and the IC50 ([2]; Saccharomyces cerevisiae, ∆erg6 strain, growth over 24 h, value (95% CI), read-out: IC50 Yeast) was 590 µM. The IC50 [3] was 1300 µM, the IC50 [4] was 240 µM and the “effect on ATP hydrolysis of Mcm2-7” value [5] was “only modest effects”. For the same compound, the “effect on ATP hydrolysis of Mcm467” value [6] was “only modest effects”, the “effect on ssDNA binding of TAg” value [7] was “only modest effects” and the “inhibition of DnaB helicase” value [8] was “none of the tested helicases were substantially inhibited”. For the same compound, the “inhibition of T4 gp41 helicase” value [9] was “none of the tested helicases were substantially inhibited”.
